Reference: PubChem BioAssay AID226 (DTP/NCI, 2004)
“And” between values parts separate entries of the source, which are not always exact repeats. Equal values may be shown once. Toxic doses and inconclusive results are not listed.

System: B6C3F1 mice, intracerebral ependymoblastoma, median survival T/C
Assay: NCI In Vivo Anticancer Drug Screen. Data for tumor model Ependymoblastoma (intracerebral) in B6C3F1 mice
Conditions: endpoint: median survival time, higher = longer survival
Experimental: The antitumor activity of compounds was measured in mice bearing transplantable tumors. Survival or tumor size were measured and the results are expressed as the measurement made in the treated group (T) divided by the measurement made in the vehicle treated control group (C). The tumor model used in this assay is Ependymoblastoma (intracerebral) in B6C3F1 mice

[1] = dose: 128.0 mg/kg/injection, schedule: Q01DX005 (ip), vehicle: saline with Tween-80
[2] = dose: 128.0 mg/kg/injection, schedule: Q01DX005 (ip), vehicle: saline
[3] = dose: 256.0 mg/kg/injection, schedule: Q01DX005 (ip), vehicle: saline with Tween-80
[4] = dose: 512.0 mg/kg/injection, schedule: Q01DX005 (ip), vehicle: saline with Tween-80
[5] = dose: 32.0 mg/kg/injection, schedule: Q01DX005 (ip), vehicle: saline with Tween-80
[6] = dose: 64.0 mg/kg/injection, schedule: Q01DX005 (ip), vehicle: saline with Tween-80
[7] = dose: 25.0 mg/kg/injection, schedule: Q01DX005 (ip), vehicle: Klucel (hydroxypropylcellulose) (HPC)
[8] = dose: 50.0 mg/kg/injection, schedule: Q01DX005 (ip), vehicle: Klucel (hydroxypropylcellulose) (HPC)
[9] = dose: 100.0 mg/kg/injection, schedule: Q01DX005 (ip), vehicle: Klucel (hydroxypropylcellulose) (HPC)
[10] = dose: 200.0 mg/kg/injection, schedule: Q01DX005 (ip), vehicle: Klucel (hydroxypropylcellulose) (HPC)
[11] = dose: 400.0 mg/kg/injection, schedule: Q01DX005 (ip), vehicle: Klucel (hydroxypropylcellulose) (HPC)
[12] = dose: 12.5 mg/kg/injection, schedule: Q01DX005 (ip), vehicle: saline with Tween-80
[13] = dose: 25.0 mg/kg/injection, schedule: Q01DX005 (ip), vehicle: saline with Tween-80
[14] = dose: 50.0 mg/kg/injection, schedule: Q01DX005 (ip), vehicle: saline with Tween-80
[15] = dose: 100.0 mg/kg/injection, schedule: Q01DX005 (ip), vehicle: saline with Tween-80

Compound: Nc1nc2c(c(=O)[nH]1)N(C=O)C(CNc1ccc(C(=O)N[C@@H](CCC(=O)O)C(=O)O)cc1)CN2 (stereo partly specified)
- T/C [1]: 101 % of control
- T/C [2]: 104 % of control
- T/C (dose: 150.0 mg/kg/injection, schedule: Q04DX003 (ip), vehicle: saline): 104 % of control
- T/C [3]: 96 % of control
- T/C (dose: 256.0 mg/kg/injection, schedule: Q01DX005 (ip), vehicle: saline): 98 % of control
- T/C (dose: 300.0 mg/kg/injection, schedule: Q04DX003 (ip), vehicle: saline): 115 % of control
- T/C [4]: 101 % of control
- T/C (dose: 512.0 mg/kg/injection, schedule: Q01DX005 (ip), vehicle: saline): 96 % of control
- T/C (dose: 600.0 mg/kg/injection, schedule: Q04DX003 (ip), vehicle: saline): 101 % of control
- T/C (dose: 1200.0 mg/kg/injection, schedule: Q04DX003 (ip), vehicle: saline): 115 % of control

Compound: CCC(=O)O[C@H]1CC[C@H]2[C@@H]3CC[C@H]4CC(=O)[C@H](C)C[C@]4(C)[C@H]3CC[C@]12C
- T/C (dose: 8.0 mg/kg/injection, schedule: Q01DX005 (ip), vehicle: Klucel (hydroxypropylcellulose) (HPC)): 95 % of control and 102 % of control
- T/C (dose: 8.0 mg/kg/injection, schedule: Q01DX005 (ip), vehicle: saline with Tween-80): 98 % of control and 108 % of control
- T/C (dose: 16.0 mg/kg/injection, schedule: Q01DX005 (ip), vehicle: Klucel (hydroxypropylcellulose) (HPC)): 90 % of control and 101 % of control
- T/C (dose: 16.0 mg/kg/injection, schedule: Q01DX005 (ip), vehicle: saline with Tween-80): 95 % of control and 96 % of control
- T/C (dose: 32.0 mg/kg/injection, schedule: Q01DX005 (ip), vehicle: Klucel (hydroxypropylcellulose) (HPC)): 97 % of control and 99 % of control
- T/C [5]: 103 % of control and 107 % of control
- T/C (dose: 64.0 mg/kg/injection, schedule: Q01DX005 (ip), vehicle: Klucel (hydroxypropylcellulose) (HPC)): 95 % of control and 101 % of control
- T/C [6]: 98 % of control and 111 % of control
- T/C (dose: 128.0 mg/kg/injection, schedule: Q01DX005 (ip), vehicle: Klucel (hydroxypropylcellulose) (HPC)): 98 % of control and 87 % of control
- T/C [1]: 106 % of control and 108 % of control
- T/C (dose: 256.0 mg/kg/injection, schedule: Q01DX005 (ip), vehicle: Klucel (hydroxypropylcellulose) (HPC)): 93 % of control and 87 % of control
- T/C [3]: 97 % of control and 113 % of control
- T/C (dose: 512.0 mg/kg/injection, schedule: Q01DX005 (ip), vehicle: Klucel (hydroxypropylcellulose) (HPC)): 87 % of control
- T/C [4]: 97 % of control and 101 % of control

Compound: CCCCN(C)N=Nc1ccc([N+](=O)[O-])cc1C(N)=O
- T/C [5]: 114 % of control
- T/C [1]: 171 % of control
- T/C [3]: 158 % of control

Compound: ClC1C(Cl)C(Cl)C(Cl)C(Cl)C1Cl (stereo unspecified)
- T/C (dose: 12.5 mg/kg/injection, schedule: Q01DX005 (ip), vehicle: Klucel (hydroxypropylcellulose) (HPC)): 100 % of control
- T/C [7]: 107 % of control and 108 % of control
- T/C [8]: 95 % of control and 102 % of control
- T/C [9]: 117 % of control and 118 % of control
- T/C [10]: 98 % of control and 107 % of control
- T/C [11]: 107 % of control

Compound: CNc1nc(N(C)C)nc(N(C)C)n1
- T/C (dose: 16.0 mg/kg/injection, schedule: Q01DX005 (ip), vehicle: saline): 98 % of control and 111 % of control
- T/C (dose: 32.0 mg/kg/injection, schedule: Q01DX005 (ip), vehicle: saline): 101 % of control
- T/C (dose: 64.0 mg/kg/injection, schedule: Q01DX005 (ip), vehicle: saline): 104 % of control and 115 % of control
- T/C [2]: 96 % of control and 111 % of control

Compound: Cc1cnc(/C=N\NC(N)=S)c2cccc(N)c12
- T/C [12]: 100 % of control
- T/C [13]: 103 % of control
- T/C [14]: 104 % of control
- T/C [15]: 102 % of control

Compound: CC(=O)NNC(=O)c1ccccn1
- T/C [9]: 101 % of control and 110 % of control
- T/C [10]: 92 % of control and 90 % of control
- T/C [11]: 95 % of control and 103 % of control

Compound: CN(C)CCCNc1c2ccccc2nc2cccc([N+](=O)[O-])c12
- T/C (dose: 0.06 mg/kg/injection, schedule: Q01DX001 (oral), vehicle: saline): 102 % of control
- T/C (dose: 0.06 mg/kg/injection, schedule: Q01DX005 (ip), vehicle: saline): 103 % of control and 105 % of control and 112 % of control
- T/C (dose: 0.12 mg/kg/injection, schedule: Q01DX001 (oral), vehicle: saline): 98 % of control
- T/C (dose: 0.12 mg/kg/injection, schedule: Q01DX005 (ip), vehicle: saline): 92 % of control
- T/C (dose: 0.13 mg/kg/injection, schedule: Q01DX005 (ip), vehicle: saline): 102 % of control
- T/C (dose: 0.25 mg/kg/injection, schedule: Q01DX001 (oral), vehicle: saline): 103 % of control
- T/C (dose: 0.5 mg/kg/injection, schedule: Q01DX001 (oral), vehicle: saline): 100 % of control
- T/C (dose: 1.0 mg/kg/injection, schedule: Q01DX001 (oral), vehicle: saline): 108 % of control
- T/C (dose: 2.0 mg/kg/injection, schedule: Q01DX001 (oral), vehicle: saline): 108 % of control
- T/C (dose: 4.0 mg/kg/injection, schedule: Q01DX001 (oral), vehicle: saline): 103 % of control
- T/C (dose: 16.0 micrograms/kg/injection, schedule: Q01DX005 (ip), vehicle: saline): 100 % of control and 110 % of control
- T/C (dose: 32.0 micrograms/kg/injection, schedule: Q01DX005 (ip), vehicle: saline): 100 % of control and 102 % of control
- T/C (dose: 63.0 micrograms/kg/injection, schedule: Q01DX005 (ip), vehicle: saline): 97 % of control and 104 % of control
- T/C (dose: 125.0 micrograms/kg/injection, schedule: Q01DX005 (ip), vehicle: saline): 100 % of control and 106 % of control

Compound: O=P(NC12CC3CC(CC(C3)C1)C2)(N1CC1)N1CC1
- T/C (dose: 2.25 mg/kg/injection, schedule: Q01DX005 (ip), vehicle: Klucel (hydroxypropylcellulose) (HPC)): 108 % of control and 113 % of control
- T/C (dose: 4.5 mg/kg/injection, schedule: Q01DX005 (ip), vehicle: Klucel (hydroxypropylcellulose) (HPC)): 111 % of control and 117 % of control
- T/C (dose: 9.0 mg/kg/injection, schedule: Q01DX005 (ip), vehicle: Klucel (hydroxypropylcellulose) (HPC)): 123 % of control
- T/C (dose: 18.0 mg/kg/injection, schedule: Q01DX005 (ip), vehicle: Klucel (hydroxypropylcellulose) (HPC)): 123 % of control

Compound: CCOC(OCC)C(=O)OCC(=O)[C@]1(O)Cc2c(O)c3c(c(O)c2[C@@H](OC2CC(N)C(O)C(C)O2)C1)C(=O)c1c(OC)cccc1C3=O (stereo partly specified)
- T/C (dose: 0.12 mg/kg/injection, schedule: Q01DX005 (ip), vehicle: water): 103 % of control
- T/C (dose: 0.25 mg/kg/injection, schedule: Q01DX005 (ip), vehicle: water): 102 % of control and 113 % of control
- T/C (dose: 0.5 mg/kg/injection, schedule: Q01DX005 (ip), vehicle: water): 101 % of control and 105 % of control
- T/C (dose: 1.0 mg/kg/injection, schedule: Q01DX005 (ip), vehicle: water): 98 % of control and 109 % of control
- T/C (dose: 2.0 mg/kg/injection, schedule: Q01DX005 (ip), vehicle: water): 101 % of control and 103 % of control
- T/C (dose: 4.0 mg/kg/injection, schedule: Q01DX005 (ip), vehicle: water): 109 % of control

Compound: c1ccc([C@H]2CN3CCSC3=N2)cc1
- T/C (dose: 10.0 mg/kg/injection, schedule: Q01DX005 (ip), vehicle: saline): 114 % of control
- T/C (dose: 20.0 mg/kg/injection, schedule: Q01DX005 (ip), vehicle: saline): 107 % of control
- T/C (dose: 40.0 mg/kg/injection, schedule: Q01DX005 (ip), vehicle: saline): 110 % of control

Compound: CCC(=O)O[C@H]1CC[C@H]2[C@@H]3[C@@H](C)CC4=CC(=O)CC[C@]4(C)[C@H]3CC[C@]12C
- T/C [5]: 99 % of control and 106 % of control
- T/C [6]: 97 % of control and 106 % of control
- T/C [1]: 97 % of control and 101 % of control
- T/C [3]: 101 % of control and 89 % of control
- T/C [4]: 93 % of control and 100 % of control
- T/C (dose: 768.0 mg/kg/injection, schedule: Q01DX005 (ip), vehicle: saline with Tween-80): 94 % of control

Compound: COc1cc([C@@H]2c3cc4c(cc3[C@@H](OC3OC5COC(C)OC5C(O)C3O)[C@H]3COC(=O)[C@H]23)OCO4)cc(OC)c1O (stereo partly specified)
- T/C (dose: 0.5 mg/kg/injection, schedule: Q01DX005 (ip), vehicle: suspension in saline): 101 % of control
- T/C (dose: 1.0 mg/kg/injection, schedule: Q01DX005 (ip), vehicle: suspension in saline): 100 % of control
- T/C (dose: 2.0 mg/kg/injection, schedule: Q01DX005 (ip), vehicle: suspension in saline): 110 % of control and 114 % of control
- T/C (dose: 4.0 mg/kg/injection, schedule: Q01DX005 (ip), vehicle: suspension in saline): 112 % of control and 120 % of control
- T/C (dose: 16.0 mg/kg/injection, schedule: Q01DX005 (ip), vehicle: suspension in saline): 102 % of control

Compound: O=[n+]1c2ccccc2n([O-])c2cc(Cl)ccc21
- T/C [12]: 100 % of control
- T/C [13]: 106 % of control
- T/C [14]: 95 % of control
- T/C [15]: 89 % of control

Compound: NC(=O)c1ncn(C2OC(CO)C(O)C2O)c1O (stereo unspecified)
- T/C [7]: 92 % of control
- T/C [8]: 101 % of control and 115 % of control
- T/C [9]: 96 % of control and 101 % of control
- T/C [10]: 105 % of control and 115 % of control
- T/C [11]: 111 % of control
